One series addresses T1, α-chymotrypsin (Bos taurus, UniProt P00766).
T1 construct: freshly prepared α-chymotrypsin from bovine pancreas type II, ≥40 U/mg; purchased; host or cells: bovine pancreas
The series is described as follows: Chymotrypsin stability test. Type of series: in vitro ADME, bovine. Particulars: bovine, pH 8; read-out: t1/2 chymotrypsin stability assay (converted). The protocol: (§1) Assays were performed using freshly prepared α-chymotrypsin from bovine pancreas type II, ≥40 U/mg. The enzyme was initially reconstituted in HCl […] (1 μg/μL), and kept in ice until used. Peptides stock solutions were prepared in assay buffer (50 mM Tris.HCl pH=8.0, 560 μM calcium chloride, 0.1% Tween-20) containing <3% of DMSO. The reactions were performed at a 200 μL scale, in assay buffer, at final concentrations of 50 μM for peptide and […] for α-chymotrypsin (10 μL from the reconstitution solution). The mixture was incubated at 37° C. and aliquots were withdrawn in portions of 25 μL at different time points for analysis. The removed aliquots were mixed with 25 μL of water 1% TFA, and then treated with a column for detergent removal following the manufacturer's protocol (Pierce, Catalog #:87776). The rate of peptide proteolysis was monitored by HPLC and HPLC-MS analysis. Control experiments were carried out under the same conditions but using BSA instead of α-chymotrypsin.

Series [1] concerns the target T2, α-chymotrypsin from bovine pancreas type II (Bos taurus, UniProt P00766).
T2 construct: freshly prepared α-chymotrypsin from bovine pancreas type II, ≥40 U/mg; purchased; host or cells: bovine pancreas
The series can be described thus: Chymotrypsin stability test. Particulars: HPLC and LC/MS monitoring. It is filed as in vitro ADME. The protocol:
as §1

A further series is described as follows: circular dichroism. The settings on record: deionized water; pH unbuffered; 20 °C; 25 uM. A general note: Circular dichroism is widely used to follow secondary structure.
Series [2] is described as follows: Circular dichroism (helicity). It is filed as physicochemical. Particulars: CD in water, 20° C. The protocol:
Circular dichroism spectra were recorded on a CHIRASCAN™ spectrometer. Peptides were dissolved in deionized water, at a concentration of 25 μM. CD signal was monitored at 1 nm intervals from 180 to 260 nm with a 1-mm path quartz cuvette. The data reported is the average of three scans, subtracting the background. The helical content of each peptide was determined using prism 7 software, with molar ellipticity [θ][deg·cm^2dmol^−1] being calculated using the following formula: [θ]=1000000×0/(C×#of residues×l), where θ is the ellipticity read out from Chirascan, C is the concentration of peptide samples in μM, l is the pathlength of the cuvette measured in mm. The percentage helicity was calculated with formula:% Hellicity=100×[θ]222/[θ]max222, where [θ]max222=−31500×[1−([…])].

Another series is described as follows: Plasma stability test. Particulars: human plasma, 37° C. It is filed as in vitro ADME. The protocol:
1 mM stock solution of the corresponded peptide was prepared in PBS buffer (pH 7.4). Next, 50 μL from […] this solution were added to 1 mL of human plasma (Sigma-Aldrich, P9523). The mixture was incubated at 37° C. with mechanical shaking at 300 rpm. Aliquots were withdrawn in portions of 150 μL at different time points for analysis and mixed with 60 μL ACN/EtOH (1:1 v/v) for plasma protein precipitation. After centrifugation at 12000 rpm for 5 min, the supernatant was collected and analyzed by HPLC and HPLC-MS.

Entries after “also recorded” stand apart in the source; their conditions may differ. Starred links: 1 amine or outer side, 2 acyl side, 3 side chain; linkers in the order of their positions; H or OH if unused. Positions of bridges follow the written chain, without caps; N, C: chain ends. Residues, ends and D or L forms follow the SMILES beside them. X1 = C(C[*:1])C[*:2]

In the case of `CC[C@H](C)[C@H](NC(=O)[C@H](CCCCN)NC(=O)[C@@H]1CSCCCSC[C@H](NC(=O)[C@@H](NC(C)=O)C(C)C)C(=O)N[C@@H](CC(N)=O)C(=O)N[C@@H](CCC(=O)O)C(=O)N[C@@H](CCC(=O)O)C(=O)N1)C(=O)N[C@@H](Cc1c[nH]c2ccccc12)C(=O)N[C@@H](CCCCN)C(=O)N[C@@H](CCCCN)C(=O)N[C@@H](CC(N)=O)C(=O)N[C@H](C(=O)N1CCC[C@H]1C(=O)N[C@@H](Cc1ccccc1)C(=O)N[C@@H](CC(C)C)C(N)=O)[C@@H](C)O` [24 (GN-Z24), V[CNEEC](CH2)3KIWKKNTPFL] (Ac-VCNEECKIWKKNTPFL-NH2; linker 2-6 via X1; C-terminus assumed), the half-life at 50 μM on α-chymotrypsin was 20.5 h. In series [1], the “stability to chymotrypsin proteolysis” value is given as “enhanced stability; also recorded: marked protection”.
For “Ac-TVDKIASALSVLAEEVPQN-NH2 [compound 1, reference compound]”, the helicity (in the series “circular dichroism”; in series [2]) was 4.8% each time. The “time to full degradation in plasma” value in the series “Plasma stability test” came out at 5 min.
